Legend:
acne vulgaris = test: Clinical results with a patient with acne vulgaris; type: in vivo, human
Method: A patient with acne vulgaris was given a pharmaceutical composition containing 125 mg of a cGMP-specific PDE inhibitor, exisulind (the compound of Example 1), twice daily for 8 weeks. […] Since the patient was tolerating that daily dose quite well, their dose of exisulind was increased to 150 mg twice daily, for an additional 8 weeks.
The pharmaceutical formulation for the 150 mg-containing pharmaceutical composition taken by this patient contained exisulind (150 mg), lactose monohydrate (207 mg), croscarmellose sodium (15 mg), colloidal silicon dioxide (1 mg), magnesium stearate (6.3 mg), and sodium lauryl sulfate (0.7 mg) encapsulated in a # 1 gelatin capsule. The exisulind was obtained from Zambon Group, S.p.A., of Milan, Italy. The pharmaceutical formulation for the 125 mg containing composition was formulated with less exisulind, and more excipients to fill the capsule.

PDE2 = PDE2 (Homo sapiens, UniProt O00408); test: cGMP-stimulated PDE inhibition activity; type: biochemical
Method: (§1) cGMP-specific phosphodiesterase activity can be determined using methods known in the art, such as a method using radioactive ^3H cyclic GMP (cyclic 3',5'-guanosine monophosphate) as the substrate for PDE5 enzyme (Thompson, W.J., Teraski, W.L., Epstein, P.M., Strada, S.J., Advances in Cyclic Nucleotide Research, 10:69-92, 1979. Using such techniques, the values of cGMP-specific inhibition set forth in Table 1 were determined for the compounds above: TABLE 1
cGMP phosphodiesterase activity can be determined using the methods referenced in Example 5, above. Using such techniques, the IC50 value for the inhibition of PDE2 by the compound of Example 1, exisulind, was determined as shown in Table 2.

[1] = Clinical studies of exisulind for uses other than acne (tolerability); type: in vivo
Method: In studies with adult patients, patients with intact colons received exisulind at a dosage of 400 mg/day, and patients who had previously undergone a colectomy received exisulind at a dosage of 600 mg/day. In another study with adult patients, the patients received 500 mg/day of exisulind. In a study involving pediatric patients, the dosage of exisulind used ranged from 250 to 350 mg per day.
In these studies, exisulind is generally well tolerated in patients. […] The maximum tolerated dose (MTD) was determined to be 600 mg/day in patients with colectomies, and 400 mg/day in the group with intact colons. […] These elevations were completely reversible on stopping the drug. Additionally, after a patient with elevated liver enzymes stops receiving the drug for approximately one week, the patient can then safely resume treatment at the same or a lower therapeutic dose, i.e. the dosages mentioned above. The elevations seem to be dose related and have been seen mostly at doses above the maximum tolerated dose. […] Thirteen of those patients received exisulind for over three years.

PDE5 = PDE5 (Homo sapiens, UniProt O76074); test: cGMP-specific PDE inhibition activity (3H cyclic GMP substrate); type: biochemical
Method: as §1

PDE2, sequence (O00408 whole entry): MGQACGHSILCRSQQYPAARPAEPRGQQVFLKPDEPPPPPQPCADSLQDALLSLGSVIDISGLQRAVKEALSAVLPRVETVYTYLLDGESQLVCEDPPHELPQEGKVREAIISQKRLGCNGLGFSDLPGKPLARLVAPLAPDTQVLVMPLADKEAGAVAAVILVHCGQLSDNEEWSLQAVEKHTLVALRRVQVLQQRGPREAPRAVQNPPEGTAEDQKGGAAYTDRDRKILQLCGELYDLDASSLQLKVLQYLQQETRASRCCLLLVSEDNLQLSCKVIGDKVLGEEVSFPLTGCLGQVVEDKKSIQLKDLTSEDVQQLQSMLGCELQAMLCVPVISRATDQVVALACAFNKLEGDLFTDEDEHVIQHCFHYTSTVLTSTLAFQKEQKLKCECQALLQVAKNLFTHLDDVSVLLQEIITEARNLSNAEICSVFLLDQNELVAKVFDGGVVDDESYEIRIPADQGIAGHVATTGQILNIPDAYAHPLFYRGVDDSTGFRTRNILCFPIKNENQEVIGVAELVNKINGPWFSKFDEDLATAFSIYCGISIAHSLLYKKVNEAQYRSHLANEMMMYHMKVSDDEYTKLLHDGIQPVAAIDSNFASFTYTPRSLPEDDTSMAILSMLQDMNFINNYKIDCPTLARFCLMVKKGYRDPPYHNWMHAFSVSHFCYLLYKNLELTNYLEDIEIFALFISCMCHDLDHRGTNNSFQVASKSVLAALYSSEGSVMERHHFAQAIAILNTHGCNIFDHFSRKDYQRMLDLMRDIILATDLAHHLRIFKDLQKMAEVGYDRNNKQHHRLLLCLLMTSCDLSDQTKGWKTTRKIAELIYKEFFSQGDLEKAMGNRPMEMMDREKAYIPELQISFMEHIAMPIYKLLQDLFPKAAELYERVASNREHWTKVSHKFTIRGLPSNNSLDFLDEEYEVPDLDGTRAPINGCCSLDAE

| inhibition at 10 µM (PDE5) [%] | Compound | patient's acne (acne vulgaris; 150 mg twice daily for an additional 8 weeks, end of second 8-week period) | adverse side effects reported by patient (acne vulgaris; after 125 mg then 150 mg twice daily, 8 weeks each) | manifestations of acne during continued treatment (acne vulgaris; continued on drug for six months) | patient's acne (intensity) (acne vulgaris; patient, 125 mg twice daily for 8 weeks) | IC50 (PDE2) [µM] | maximum tolerated dose (MTD) ([1]; group with intact colons) [mg/day] | liver function tests ([1]; human, in vivo) | side effects in clinical studies ([1]; human, in vivo) | side effects on extended treatment ([1]; human, in vivo) | maximum tolerated dose (MTD) ([1]; patients with colectomies) [mg/day] |
| --- | --- | --- | --- | --- | --- | --- | --- | --- | --- | --- | --- |
| 50 | COC(=O)CC1=C(C)/C(=C/c2ccc(S(C)(=O)=O)cc2)c2ccc(F)cc21 [Example 2, α-(1-p-Methylsulfonylbenzylidene)-2-Methyl-5-Fluoro-3-Indenyl -Acetic Acid Methyl Ester] | – | – | – | – | – | – | – | – | – | – |
| 80 | CC1=C(CCO)c2cc(F)ccc2/C1=C\c1ccc(S(C)(=O)=O)cc1 [Example 3, (Z)-5-Fluoro-2-Methyl-1-(4-Methylsulfonylbenzylidene)-1H-3-Indenyl-(2-Hydroxy) Ethane] | – | – | – | – | – | – | – | – | – | – |

| Compound | inhibition at 10 µM (PDE5) [%] | patient's acne (acne vulgaris; 150 mg twice daily for an additional 8 weeks, end of second 8-week period) | adverse side effects reported by patient (acne vulgaris; after 125 mg then 150 mg twice daily, 8 weeks each) | manifestations of acne during continued treatment (acne vulgaris; continued on drug for six months) | patient's acne (intensity) (acne vulgaris; patient, 125 mg twice daily for 8 weeks) | IC50 (PDE2) [µM] | maximum tolerated dose (MTD) ([1]; group with intact colons) [mg/day] | liver function tests ([1]; human, in vivo) | side effects in clinical studies ([1]; human, in vivo) | side effects on extended treatment ([1]; human, in vivo) | maximum tolerated dose (MTD) ([1]; patients with colectomies) [mg/day] |
| --- | --- | --- | --- | --- | --- | --- | --- | --- | --- | --- | --- |
| CC1=C(CC(=O)O)c2cc(F)ccc2/C1=C\c1ccc(S(C)(=O)=O)cc1 [Example 1, α-(1-p-Methylsulfonylbenzylidene)-2-Methyl-5-Fluoro-3-Indenyl-Acetic Acid] | 39 | disappeared completely | no adverse side effects | without any significant manifestations of acne | decrease noticeably in intensity | 300 | 400 | moderate, reversible, asymptomatic elevation in liver function tests | no clinically relevant side effects reported | no such clinically significant side effects | 600 |
